Test results as given in ChEMBL document CHEMBL5634113, “Synthesis, cytotoxic activity evaluation and mechanistic investigation of novel 3,7-diarylsubstituted 6-azaindoles” (Eur J Med Chem, 2023).
Where a name gives a salt, the structure may show the parent alone. Active and inactive are the calls of the source. The rule behind the calls is not given here.

Columns and labels:
A-431 [1] = assay: Cytotoxicity against human A-431 cells assessed as inhibition of cell growth incubated for 72 hrs by MTT assay; assay type: functional, cell-based; conditions: A-431, 72 h
HT-1080 = assay: Cytotoxicity against human HT-1080 cells assessed as inhibition of cell growth incubated for 72 hrs by MTT assay; assay type: functional, cell-based; conditions: HT-1080, 72 h
MCF7 = assay: Cytotoxicity against human MCF7 cells assessed as inhibition of cell growth incubated for 72 hrs by MTT assay; assay type: functional, cell-based; conditions: MCF7, 72 h
MDA-MB-231 = assay: Cytotoxicity against human MDA-MB-231 cells assessed as inhibition of cell growth incubated for 72 hrs by MTT assay; assay type: functional, cell-based; conditions: MDA-MB-231, 72 h
[2] = Cytotoxicity against human AG1523 cells assessed as inhibition of cell growth incubated for 72 hrs by MTT assay; assay type: toxicity, cell-based
A-431 [3] = assay: Induction of cell cycle arrest in human A-431 cells assessed as accumulation of cells at G0/G1 phase at 100 nM incubated for 24 hrs by RNase/PI staining based flow cytometry analysis (reference value: 40.98%); assay type: functional
A-431 [4] = assay: Induction of cell cycle arrest in human A-431 cells assessed as accumulation of cells at S phase at 100 nM incubated for 24 hrs by RNase/PI staining based flow cytometry analysis (reference value: 43.35%); assay type: functional
A-431 [5] = assay: Induction of cell cycle arrest in human A-431 cells assessed as accumulation of cells at G2/M phase at 100 nM incubated for 24 hrs by RNase/PI staining based flow cytometry analysis (reference value: 15.66%); assay type: functional
A-431 [6] = assay: Induction of cell cycle arrest in human A-431 cells assessed as accumulation of cells at Sub-diploid phase at 100 nM incubated for 24 hrs by RNase/PI staining based flow cytometry analysis (reference value: 1.82%); assay type: functional
[7] = molecular target: Dual specificity mitogen-activated protein kinase kinase 1 (Homo sapiens) (UniProt Q02750); assay: Inhibition of MEK1 phosphorylation at Ser217/Ser221 residues in human A-431 cells at IC50 measured after 0 to 24 hrs by multiplex immunoassay; assay type: cell-based; conditions: time 0-24 hrs
Dual specificity mitogen-activated protein kinase kinase 1 (Homo sapiens), sequence (Q02750 whole entry): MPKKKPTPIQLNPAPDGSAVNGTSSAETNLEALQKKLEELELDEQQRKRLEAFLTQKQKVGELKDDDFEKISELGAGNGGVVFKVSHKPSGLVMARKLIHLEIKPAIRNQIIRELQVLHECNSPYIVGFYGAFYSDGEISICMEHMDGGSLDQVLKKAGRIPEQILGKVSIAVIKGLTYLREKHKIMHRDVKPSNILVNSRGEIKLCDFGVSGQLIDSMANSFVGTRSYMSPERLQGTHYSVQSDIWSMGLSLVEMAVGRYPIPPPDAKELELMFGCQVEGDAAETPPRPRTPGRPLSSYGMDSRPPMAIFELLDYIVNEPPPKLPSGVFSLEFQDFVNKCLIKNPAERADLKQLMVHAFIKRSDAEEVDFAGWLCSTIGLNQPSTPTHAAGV

[8] = molecular target: Mitogen-activated protein kinase 3 (Homo sapiens) (UniProt P27361); assay: Inhibition of ERK1 phosphorylation at Thr202/Tyr204 residues in human A-431 cells at IC50 measured after 0 to 24 hrs by multiplex immunoassay; assay type: cell-based; conditions: time 0-24 hrs
Mitogen-activated protein kinase 3 (Homo sapiens), sequence (P27361 whole entry): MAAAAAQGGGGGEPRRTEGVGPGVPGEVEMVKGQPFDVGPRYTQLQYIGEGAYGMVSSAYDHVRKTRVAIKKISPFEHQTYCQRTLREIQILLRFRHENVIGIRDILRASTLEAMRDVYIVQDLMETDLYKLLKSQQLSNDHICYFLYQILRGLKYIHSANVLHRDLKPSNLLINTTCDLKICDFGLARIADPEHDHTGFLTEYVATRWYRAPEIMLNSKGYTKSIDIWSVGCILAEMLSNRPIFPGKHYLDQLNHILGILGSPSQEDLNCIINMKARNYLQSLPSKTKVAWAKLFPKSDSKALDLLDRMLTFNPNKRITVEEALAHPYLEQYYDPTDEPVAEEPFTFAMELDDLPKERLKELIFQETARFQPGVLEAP

[9] = molecular target: Mitogen-activated protein kinase 1 (Homo sapiens) (UniProt P28482); assay: Inhibition of ERK2 phosphorylation at Thr185/Tyr187 residues in human A-431 cells at IC50 measured after 0 to 24 hrs by multiplex immunoassay; assay type: cell-based; conditions: time 0-24 hrs
Mitogen-activated protein kinase 1 (Homo sapiens), sequence (P28482 whole entry): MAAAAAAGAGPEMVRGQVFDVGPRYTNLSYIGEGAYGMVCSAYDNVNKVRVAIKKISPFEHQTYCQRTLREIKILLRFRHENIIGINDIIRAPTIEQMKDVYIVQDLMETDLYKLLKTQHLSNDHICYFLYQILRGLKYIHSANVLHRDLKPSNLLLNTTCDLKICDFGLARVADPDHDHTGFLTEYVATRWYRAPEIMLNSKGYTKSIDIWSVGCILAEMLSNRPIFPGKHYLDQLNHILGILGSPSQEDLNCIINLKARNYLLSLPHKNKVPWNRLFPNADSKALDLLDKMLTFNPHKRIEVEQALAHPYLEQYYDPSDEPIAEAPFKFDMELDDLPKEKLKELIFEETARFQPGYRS

[10] = molecular target: Ribosomal protein S6 kinase alpha-1 (Homo sapiens) (UniProt Q15418); assay: Inhibition of p90 RSK phosphorylation at Ser380 residue in human A-431 cells at IC50 measured after 0 to 24 hrs by multiplex immunoassay; assay type: cell-based; conditions: time 0-24 hrs
Ribosomal protein S6 kinase alpha-1 (Homo sapiens), sequence (Q15418 whole entry): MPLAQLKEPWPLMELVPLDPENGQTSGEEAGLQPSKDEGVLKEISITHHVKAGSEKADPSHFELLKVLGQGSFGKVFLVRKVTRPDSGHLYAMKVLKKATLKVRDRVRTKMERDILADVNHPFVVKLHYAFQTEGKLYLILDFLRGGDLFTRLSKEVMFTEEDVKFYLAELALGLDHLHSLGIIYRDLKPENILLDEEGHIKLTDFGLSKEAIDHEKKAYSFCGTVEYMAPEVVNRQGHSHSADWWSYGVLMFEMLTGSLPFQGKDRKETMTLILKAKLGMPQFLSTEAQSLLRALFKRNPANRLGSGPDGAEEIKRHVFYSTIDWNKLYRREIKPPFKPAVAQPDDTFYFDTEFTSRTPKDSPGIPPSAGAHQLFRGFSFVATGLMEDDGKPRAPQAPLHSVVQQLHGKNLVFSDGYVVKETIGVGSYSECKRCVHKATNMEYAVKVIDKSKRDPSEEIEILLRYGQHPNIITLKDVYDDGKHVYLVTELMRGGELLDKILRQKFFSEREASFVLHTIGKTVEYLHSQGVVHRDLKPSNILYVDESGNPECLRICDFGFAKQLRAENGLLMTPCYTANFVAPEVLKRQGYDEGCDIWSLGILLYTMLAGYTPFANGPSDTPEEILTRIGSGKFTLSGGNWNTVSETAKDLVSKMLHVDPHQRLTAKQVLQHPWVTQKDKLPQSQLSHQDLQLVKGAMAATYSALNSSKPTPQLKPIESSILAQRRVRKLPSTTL

[11] = molecular target: Signal transducer and activator of transcription 3 (Homo sapiens) (UniProt P40763); assay: Inhibition of STAT3 phosphorylation at Ser727 residue in human A-431 cells at IC50 measured after 0 to 24 hrs by multiplex immunoassay; assay type: cell-based; conditions: time 0-24 hrs
Signal transducer and activator of transcription 3 (Homo sapiens), sequence (P40763 whole entry): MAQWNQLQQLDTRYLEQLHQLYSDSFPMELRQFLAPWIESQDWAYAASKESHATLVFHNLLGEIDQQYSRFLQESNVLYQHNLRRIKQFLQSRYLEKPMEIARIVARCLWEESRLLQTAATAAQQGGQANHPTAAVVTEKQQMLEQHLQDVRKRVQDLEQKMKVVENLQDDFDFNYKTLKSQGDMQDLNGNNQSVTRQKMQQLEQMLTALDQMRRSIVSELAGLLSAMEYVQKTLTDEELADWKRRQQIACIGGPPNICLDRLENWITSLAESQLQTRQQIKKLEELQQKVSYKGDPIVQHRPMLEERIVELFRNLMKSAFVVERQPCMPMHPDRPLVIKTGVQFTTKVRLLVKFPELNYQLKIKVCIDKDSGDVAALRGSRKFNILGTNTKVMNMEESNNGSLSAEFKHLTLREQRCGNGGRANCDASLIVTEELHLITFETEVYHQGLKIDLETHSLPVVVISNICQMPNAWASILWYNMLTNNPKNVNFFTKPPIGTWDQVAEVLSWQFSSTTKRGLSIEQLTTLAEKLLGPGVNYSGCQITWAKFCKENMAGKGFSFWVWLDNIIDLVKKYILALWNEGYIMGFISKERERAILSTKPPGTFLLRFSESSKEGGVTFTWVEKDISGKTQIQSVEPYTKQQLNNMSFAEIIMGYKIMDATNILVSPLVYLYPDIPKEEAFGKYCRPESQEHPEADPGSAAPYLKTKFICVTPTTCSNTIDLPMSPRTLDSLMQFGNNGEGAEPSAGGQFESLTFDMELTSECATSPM

A-431 [12] = assay: Cytotoxicity against human A-431 cells assessed as increase in mitotic nuclei measured after 6 to 24 hrs by DAPI staining based analysis; assay type: functional, cell-based; conditions: time 6-24 hrs
A-431 [13] = assay: Genotoxicity in human A-431 cells assessed as upregulation of ATR total protein level at IC50 measured after 0 to 24 hrs by multiplex immunoassay; assay type: functional, cell-based; conditions: time 0-24 hrs
A-431 [14] = assay: Genotoxicity in human A-431 cells assessed as upregulation of phosphorylated Chk1 at Ser345 residue protein level at IC50 measured after 0 to 24 hrs by multiplex immunoassay; assay type: functional, cell-based; conditions: time 0-24 hrs
A-431 [15] = assay: Genotoxicity in human A-431 cells assessed as upregulation of phosphorylated Chk2 at Thr68 residue protein level at IC50 measured after 0 to 24 hrs by multiplex immunoassay; assay type: functional, cell-based; conditions: time 0-24 hrs
A-431 [16] = assay: Genotoxicity in human A-431 cells assessed as upregulation of phosphorylated p53 at Ser15 residue protein level at IC50 measured after 0 to 24 hrs by multiplex immunoassay; assay type: functional, cell-based; conditions: time 0-24 hrs
A-431 [17] = assay: Genotoxicity in human A-431 cells assessed as upregulation of MDM2 total protein level at IC50 measured after 0 to 24 hrs by multiplex immunoassay; assay type: functional, cell-based; conditions: time 0-24 hrs
A-431 [18] = assay: Genotoxicity in human A-431 cells assessed as upregulation of p21 total protein level at IC50 measured after 0 to 24 hrs by multiplex immunoassay; assay type: functional, cell-based; conditions: time 0-24 hrs
[19] = molecular target: Cellular tumor antigen p53 (Homo sapiens) (UniProt P04637); assay: Activation of p53 in human A-431 cells assessed as increase in p53 phosphorylation at Ser15 residue at IC50 measured after 0 to 24 hrs by Western blot analysis; assay type: cell-based; conditions: filed as activator, time 0-24 hrs
Cellular tumor antigen p53 (Homo sapiens), sequence (P04637 whole entry, looked up): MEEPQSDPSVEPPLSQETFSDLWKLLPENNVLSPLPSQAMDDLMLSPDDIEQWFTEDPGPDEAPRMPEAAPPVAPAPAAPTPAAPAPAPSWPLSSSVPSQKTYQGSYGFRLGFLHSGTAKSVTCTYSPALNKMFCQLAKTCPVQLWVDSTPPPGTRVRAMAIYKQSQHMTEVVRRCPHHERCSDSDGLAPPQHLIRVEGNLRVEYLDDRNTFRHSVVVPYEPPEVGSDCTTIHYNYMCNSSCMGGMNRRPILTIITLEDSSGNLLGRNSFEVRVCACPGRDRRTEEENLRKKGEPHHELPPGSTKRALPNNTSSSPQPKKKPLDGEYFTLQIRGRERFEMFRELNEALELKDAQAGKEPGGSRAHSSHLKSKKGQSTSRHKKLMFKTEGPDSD

[20] = molecular target: Cyclin-dependent kinase inhibitor 1 (Homo sapiens) (UniProt P38936); assay: Activation of p21 waf1 in human A-431 cells assessed as increase in p21 waf1 protein level at IC50 measured after 0 to 24 hrs by Western blot analysis; assay type: cell-based; conditions: filed as activator, time 0-24 hrs
Cyclin-dependent kinase inhibitor 1 (Homo sapiens), sequence (P38936 whole entry): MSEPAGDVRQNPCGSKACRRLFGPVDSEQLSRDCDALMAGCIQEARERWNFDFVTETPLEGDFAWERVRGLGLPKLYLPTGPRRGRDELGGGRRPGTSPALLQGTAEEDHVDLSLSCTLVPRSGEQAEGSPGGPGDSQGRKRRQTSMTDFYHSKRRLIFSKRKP

Structure (SMILES) | IC50 (A-431 [1]) | IC50 (HT-1080) | IC50 (MCF7) | IC50 (MDA-MB-231) | IC50 at 72 h [2] | further results
c1ccc(-c2c[nH]c3c(-c4ccccc4)nccc23)cc1 | 0.54 µM | 0.79 µM | 2.48 µM | 1.51 µM | 85.1 µM | –
COc1ccc(Cn2cc(-c3ccccc3)c3ccnc(-c4ccccc4)c32)cc1 | 9.89 µM | 13.1 µM | 13.4 µM | 22.5 µM | > 100 µM | –
Clc1ccc(-c2nccc3c(-c4ccccc4)c[nH]c23)cc1 | 0.02 µM | 0.056 µM | 0.35 µM | 0.051 µM | > 100 µM | Activity (A-431 [3]): 20.59%; Activity (A-431 [4]): 39.69%; Activity (A-431 [5]): 39.73%; Activity (A-431 [6]): 33.54%
CC(=O)c1ccc(-c2nccc3c(-c4ccccc4)c[nH]c23)cc1 | 0.1 µM | 0.52 µM | 0.64 µM | 0.27 µM | > 100 µM | Activity (A-431 [3]): 14.74%; Activity (A-431 [4]): 20.32%; Activity (A-431 [5]): 64.95%; Activity (A-431 [6]): 39.37%
COc1ccc(Cn2cc(-c3cccc(F)c3)c3ccnc(-c4ccc(Cl)cc4)c32)cc1 | 14.3 µM | > 100 µM | 73.3 µM | > 100 µM | > 100 µM | –
O=[N+]([O-])c1cccc(-c2nccc3c(-c4ccccc4)c[nH]c23)c1 | 2.6 µM | 3.06 µM | 3.34 µM | 4.39 µM | > 100 µM | –
Fc1cccc(-c2c[nH]c3c(-c4ccccc4)nccc23)c1 | 1.6 µM | 3.15 µM | 2.29 µM | 3.65 µM | > 100 µM | –
COc1ccc(Cn2cc(-c3cccc(F)c3)c3ccnc(-c4ccc(OC)cc4OC)c32)cc1 | 5.32 µM | 8.61 µM | 11.4 µM | 18.1 µM | > 100 µM | –
CC(=O)c1ccc(-c2nccc3c(-c4cccc(F)c4)c[nH]c23)cc1 | 0.42 µM | 0.47 µM | 0.81 µM | 0.42 µM | > 100 µM | –
Fc1cccc(-c2c[nH]c3c(-c4ccc(Cl)cc4)nccc23)c1 | 0.11 µM | 0.087 µM | 0.41 µM | 0.13 µM | 78.6 µM | –
COc1ccc(-c2nccc3c(-c4ccccc4)c[nH]c23)c(OC)c1 | 0.012 µM | 0.012 µM | 0.1 µM | 0.017 µM | 79.8 µM | Activity (A-431 [3]): 26.41%; Activity (A-431 [4]): 10.27%; Activity (A-431 [5]): 63.32%; Activity (A-431 [6]): 40.02%
COc1ccc(Cn2cc(-c3ccccc3)c3ccnc(-c4ccc(Cl)cc4)c32)cc1 | 10.8 µM | 25.8 µM | 40.8 µM | > 100 µM | > 100 µM | –
COc1ccc(Cn2cc(-c3ccccc3)c3ccnc(-c4cccc([N+](=O)[O-])c4)c32)cc1 | > 100 µM | > 100 µM | > 100 µM | > 100 µM | > 100 µM | –
COc1ccc(Cn2cc(-c3ccccc3)c3ccnc(-c4ccc(C(C)=O)cc4)c32)cc1 | > 100 µM | 41.6 µM | 24.5 µM | > 100 µM | > 100 µM | –
COc1ccc(-c2nccc3c(-c4cccc(F)c4)c[nH]c23)c(OC)c1 | 0.013 µM | 0.014 µM | 0.14 µM | 0.018 µM | 56.3 µM | Activity (A-431 [3]): 33%; Activity (A-431 [4]): 12.97%; Activity (A-431 [5]): 54.04%; Activity (A-431 [6]): 29.86%; inhibition [7]: Active; inhibition [8]: Active; inhibition [9]: Active; inhibition [10]: Active; inhibition [11]: Active; Activity (A-431 [12]): Active; Activity (A-431 [13]): Active; Activity (A-431 [14]): Active; Activity (A-431 [15]): Active; Activity (A-431 [16]): Active; Activity (A-431 [17]): Active; Activity (A-431 [18]): Active; Activity [19]: Active; Activity [20]: Active
COc1ccc(Cn2cc(-c3cccc(F)c3)c3ccnc(-c4ccccc4)c32)cc1 | 9 µM | 14.1 µM | 12.9 µM | 49.8 µM | > 100 µM | –
COc1ccc(Cn2cc(-c3cccc(F)c3)c3ccnc(-c4ccc(C(C)=O)cc4)c32)cc1 | 13 µM | 13.4 µM | 9.7 µM | 89.2 µM | > 100 µM | –
COc1cccc2c1C(=O)c1c(O)c3c(c(O)c1C2=O)C[C@@](O)(C(=O)CO)C[C@@H]3O[C@H]1C[C@H](N)[C@H](O)[C@H](C)O1 [DOXORUBICIN HYDROCHLORIDE] | 0.009 µM | 0.007 µM | 0.144 µM | 0.096 µM | – | –
COc1ccc(Cn2cc(-c3ccccc3)c3ccnc(-c4ccc(OC)cc4OC)c32)cc1 | 6.2 µM | 7.67 µM | 10.3 µM | 15.8 µM | > 100 µM | –
COc1ccc(Cn2cc(-c3cccc(F)c3)c3ccnc(-c4cccc([N+](=O)[O-])c4)c32)cc1 | > 100 µM | > 100 µM | > 100 µM | > 100 µM | > 100 µM | –
O=[N+]([O-])c1cccc(-c2nccc3c(-c4cccc(F)c4)c[nH]c23)c1 | 2.5 µM | 0.82 µM | 4.39 µM | 5.12 µM | 49 µM | –
